± gives the standard deviation of the averaged measurements.
Compound: C=CCNC1=C2C[C@@H](C)C[C@H](OC)[C@H](O)[C@@H](C)/C=C(\C)[C@H](OC(N)=O)[C@@H](OC)/C=C\C=C(/C)C(=O)NC(=CC1=O)C2=O [17-AAG]
Assay: surviving fraction relative to DMSO-only wells; higher = less growth inhibition
Settings: 5 nM; exposure time: 5 days
Method in brief: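 Inhibitors at 0.5, 1, 5, 10, 50, 100, 500 and 1000 nM were applied continuously for five days to tumour cell lines seeded in log phase at 250–500 cells per well in 384-well plates 24 hours earlier. Viability was measured by CellTiter-Glo luminescence and expressed as surviving fraction relative to the median of DMSO-only wells. Luminescence was taken after 10 minutes at room temperature.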

Which surviving fraction does the source give for SCC36 HEADNECK here?
The surviving fraction was 0.772 ± 0.089.

Which surviving fraction does the source give for OS25HAL BONE here?
Its surviving fraction is 0.909 ± 0.05.

For HCC1806 BREAST, which surviving fraction is on record?
The surviving fraction was 0.571 ± 0.12.

For HU09 BONE, which surviving fraction is on record?
Its surviving fraction is 0.542 ± 0.025.

Which surviving fraction does the source give for SG43 HEADNECK here?
The surviving fraction was 1.05 ± 0.043.

With U2OS BONE as the test system, how does the surviving fraction read?
The surviving fraction was 0.991 ± 0.018.

For HOSMNG BONE, which surviving fraction is on record?
The surviving fraction was 0.972 ± 0.051.

With CASKI CERVIX as the test system, how does the surviving fraction read?
The surviving fraction was 0.77 ± 0.057.

Which surviving fraction does the source give for SUM44 BREAST here?
Its surviving fraction is 0.759 ± 0.026.

How did the surviving fraction turn out when MDAMB231 BREAST was run?
The surviving fraction was 0.994 ± 0.033.

CAL51 BREAST was tested. Which surviving fraction did it give?
The surviving fraction was 0.989 ± 0.033.

For MDAMB436 BREAST, which surviving fraction is on record?
Its surviving fraction is 0.749 ± 0.077.

With HSSYII SYNOVIAL as the test system, how does the surviving fraction read?
Its surviving fraction is 0.888 ± 0.045.

For RDES SOFT TISSUE, which surviving fraction is on record?
The surviving fraction was 0.674 ± 0.081.

Which surviving fraction does the source give for MDAMB157 BREAST here?
The surviving fraction was 0.848 ± 0.18.

CHLA90 AUTONOMIC GANGLIA was tested. Which surviving fraction did it give?
The surviving fraction was 0.912 ± 0.055.

Which surviving fraction does the source give for CADOES1 SOFT TISSUE here?
Its surviving fraction is 1 ± 0.076.

With SG31 HEADNECK as the test system, how does the surviving fraction read?
Its surviving fraction is 0.874 ± 0.15.

For SCC47 HEADNECK, which surviving fraction is on record?
Its surviving fraction is 0.973 ± 0.014.

For S68 BREAST, which surviving fraction is on record?
The surviving fraction was 0.126 ± 0.0072.

How did the surviving fraction turn out when SNU475 LIVER was run?
The surviving fraction was 0.792 ± 0.036.

For 22RV1 PROSTATE, which surviving fraction is on record?
Its surviving fraction is 0.975 ± 0.027.

For SG32 HEADNECK, which surviving fraction is on record?
The surviving fraction was 0.875 ± 0.16.

How did the surviving fraction turn out when SCC003 HEADNECK was run?
Its surviving fraction is 0.882 ± 0.04.

For “JURKAT HAEMATOPOIETIC AND LYMPHOID TISSUE”, which surviving fraction is on record?
Its surviving fraction is 1 ± 0.023.

How did the surviving fraction turn out when HT1080 SOFT TISSUE was run?
Its surviving fraction is 1.08 ± 0.015.

With CAL120 BREAST as the test system, how does the surviving fraction read?
The surviving fraction was 0.904 ± 0.016.

Which surviving fraction does the source give for MCF7 BREAST here?
The surviving fraction was 0.811 ± 0.021.

Which surviving fraction does the source give for MFM223 BREAST here?
Its surviving fraction is 0.503 ± 0.049.

With LNCAP PROSTATE as the test system, how does the surviving fraction read?
Its surviving fraction is 0.769 ± 0.12.

With PCI30 HEADNECK as the test system, how does the surviving fraction read?
Its surviving fraction is 1.01 ± 0.12.

Which surviving fraction does the source give for OSHN BONE here?
Its surviving fraction is 0.943 ± 0.013.

How did the surviving fraction turn out when SG28 HEADNECK was run?
Its surviving fraction is 0.86 ± 0.05.

With HOS BONE as the test system, how does the surviving fraction read?
The surviving fraction was 0.934 ± 0.027.

HUO3N1 BONE was tested. Which surviving fraction did it give?
The surviving fraction was 0.97 ± 0.022.

With BT20 BREAST as the test system, how does the surviving fraction read?
The surviving fraction was 0.504 ± 0.08.

How did the surviving fraction turn out when SJSA1 BONE was run?
The surviving fraction was 0.872 ± 0.023.

Which surviving fraction does the source give for JIMT1 BREAST here?
Its surviving fraction is 0.84 ± 0.046.

HCC78 LUNG was tested. Which surviving fraction did it give?
The surviving fraction was 0.961 ± 0.12.

For NY BONE, which surviving fraction is on record?
The surviving fraction was 0.975 ± 0.0089.

With NOS1 BONE as the test system, how does the surviving fraction read?
The surviving fraction was 0.759 ± 0.069.

Same assay, conditions: 10 nM; exposure time: 5 days

For SCC36 HEADNECK, which surviving fraction is on record?
The surviving fraction was 0.744 ± 0.093.

For OS25HAL BONE, which surviving fraction is on record?
The surviving fraction was 0.894 ± 0.05.

With HCC1806 BREAST as the test system, how does the surviving fraction read?
The surviving fraction was 0.123 ± 0.056.

With HU09 BONE as the test system, how does the surviving fraction read?
Its surviving fraction is 0.131 ± 0.038.

With SG43 HEADNECK as the test system, how does the surviving fraction read?
Its surviving fraction is 0.801 ± 0.25.

How did the surviving fraction turn out when U2OS BONE was run?
Its surviving fraction is 0.886 ± 0.05.

How did the surviving fraction turn out when HOSMNG BONE was run?
Its surviving fraction is 0.978 ± 0.068.

Which surviving fraction does the source give for CASKI CERVIX here?
The surviving fraction was 0.599 ± 0.072.

SUM44 BREAST was tested. Which surviving fraction did it give?
The surviving fraction was 0.522 ± 0.026.

Which surviving fraction does the source give for MDAMB231 BREAST here?
The surviving fraction was 1.01 ± 0.022.

For CAL51 BREAST, which surviving fraction is on record?
Its surviving fraction is 0.93 ± 0.033.

MDAMB436 BREAST was tested. Which surviving fraction did it give?
Its surviving fraction is 0.581 ± 0.039.

For HSSYII SYNOVIAL, which surviving fraction is on record?
Its surviving fraction is 0.868 ± 0.022.

For RDES SOFT TISSUE, which surviving fraction is on record?
The surviving fraction was 0.692 ± 0.18.

With MDAMB157 BREAST as the test system, how does the surviving fraction read?
The surviving fraction was 0.482 ± 0.098.

How did the surviving fraction turn out when CHLA90 AUTONOMIC GANGLIA was run?
The surviving fraction was 0.889 ± 0.037.

With CADOES1 SOFT TISSUE as the test system, how does the surviving fraction read?
The surviving fraction was 0.903 ± 0.023.

For SG31 HEADNECK, which surviving fraction is on record?
Its surviving fraction is 0.753 ± 0.14.

SCC47 HEADNECK was tested. Which surviving fraction did it give?
Its surviving fraction is 0.939 ± 0.028.

For S68 BREAST, which surviving fraction is on record?
Its surviving fraction is 0.0657 ± 0.0075.

SNU475 LIVER was tested. Which surviving fraction did it give?
Its surviving fraction is 0.418 ± 0.062.

22RV1 PROSTATE was tested. Which surviving fraction did it give?
Its surviving fraction is 0.91 ± 0.069.

SG32 HEADNECK was tested. Which surviving fraction did it give?
The surviving fraction was 0.881 ± 0.14.

SCC003 HEADNECK was tested. Which surviving fraction did it give?
Its surviving fraction is 0.789 ± 0.14.

“JURKAT HAEMATOPOIETIC AND LYMPHOID TISSUE” was tested. Which surviving fraction did it give?
The surviving fraction was 0.998 ± 0.014.

For HT1080 SOFT TISSUE, which surviving fraction is on record?
The surviving fraction was 1.048 ± 0.01.

For CAL120 BREAST, which surviving fraction is on record?
The surviving fraction was 0.83 ± 0.0039.

With MCF7 BREAST as the test system, how does the surviving fraction read?
The surviving fraction was 0.777 ± 0.058.

MFM223 BREAST was tested. Which surviving fraction did it give?
Its surviving fraction is 0.33 ± 0.022.

How did the surviving fraction turn out when LNCAP PROSTATE was run?
The surviving fraction was 0.359 ± 0.028.

How did the surviving fraction turn out when PCI30 HEADNECK was run?
Its surviving fraction is 1.09 ± 0.029.

With OSHN BONE as the test system, how does the surviving fraction read?
The surviving fraction was 0.937 ± 0.018.

SG28 HEADNECK was tested. Which surviving fraction did it give?
The surviving fraction was 0.776 ± 0.064.

HOS BONE was tested. Which surviving fraction did it give?
Its surviving fraction is 0.93 ± 0.017.

Which surviving fraction does the source give for HUO3N1 BONE here?
Its surviving fraction is 0.872 ± 0.046.

For BT20 BREAST, which surviving fraction is on record?
Its surviving fraction is 0.308 ± 0.034.

Which surviving fraction does the source give for SJSA1 BONE here?
Its surviving fraction is 0.846 ± 0.029.

For JIMT1 BREAST, which surviving fraction is on record?
Its surviving fraction is 0.754 ± 0.1.

Which surviving fraction does the source give for HCC78 LUNG here?
Its surviving fraction is 0.511 ± 0.097.

How did the surviving fraction turn out when NY BONE was run?
Its surviving fraction is 0.771 ± 0.054.

Which surviving fraction does the source give for NOS1 BONE here?
The surviving fraction was 0.651 ± 0.063.
